Patent US5073549A, “BU-4164E - A and B, prolyl endopeptidase inhibitors and their methods of use” (Bristol-Myers Squibb Company, priority 1990, dated 1991)
Where a SMILES comes first, the peptide text is derived from it. [ ]: non-standard residue; d: D form. The star is where a group is joined. ξ: configuration not given here. Cbz = O=C(OCc1ccccc1)*; ξP = O=C(O)C1CCCN1

Legend:
[1] = biological target: T1, rabbit brain PED (Oryctolagus cuniculus, UniProt A0A5F9CCV6); test: Prolyl endopeptidase inhibition assay (partially purified rabbit brain enzyme, Z-Gly-Pro-pNA substrate); format: biochemical; details: pre-incubated 30 minutes at 30° C., pH 7.0
T1 construct: rabbit brain PED partially purified from the whole brain homogenate; from tissue; host or cells: rabbit whole brain homogenate
Experimental: (§1) Two enzymes were used: Flavobacterial enzyme for the screening and the isolation study and partially purified rabbit brain enzyme for in vitro evaluation. Ten μl of Flavobacterium meningosepticum PED,^10, 11 (Seikagaku Kogyo Co. Ltd., 0.5 unit/ml in 50 mM phosphate buffer, pH 7.0) or rabbit brain PED partially purified from the whole brain homogenate^12, 13.5 μl of a test sample and 86.5 μl of 100 mM phosphate buffer (pH 7.0) were mixed in a well of a 96-well microplate and pre-incubated for about 30 minutes at about 30° C. The reaction was started by addition of 25 μl of 2 mM carbobenzyloxyglycyl-prolyl-p-nitroanilide (Z-Gly-Pro-pNA) in 40% dioxane-100 mM phosphate buffer, pH 7.0. After about 5 minute-incubation at about 30° C., the amount of released p-nitroaniline was determined colorimetrically with a microplate autoreader (Titertek Multiskan® MMC) at 414 nm. For control, the reaction buffer was added to the reaction mixture instead of the test sample. The percentage of inhibition was calculated by the following equation: [formula]

[2] = biological target: T2, Flavobacterium meningosepticum PED (Elizabethkingia meningoseptica, UniProt P27028); test: Prolyl endopeptidase inhibition assay (Flavobacterium enzyme, Z-Gly-Pro-pNA substrate); format: biochemical; details: pre-incubated 30 minutes at 30° C., pH 7.0
T2 construct: purchased Seikagaku Kogyo Co. Ltd
Experimental: as §1

[3] = Solubility (physico-chemical properties); format: physicochemical; details: for Solubility: Table 3

T2 sequence (P27028 21-705): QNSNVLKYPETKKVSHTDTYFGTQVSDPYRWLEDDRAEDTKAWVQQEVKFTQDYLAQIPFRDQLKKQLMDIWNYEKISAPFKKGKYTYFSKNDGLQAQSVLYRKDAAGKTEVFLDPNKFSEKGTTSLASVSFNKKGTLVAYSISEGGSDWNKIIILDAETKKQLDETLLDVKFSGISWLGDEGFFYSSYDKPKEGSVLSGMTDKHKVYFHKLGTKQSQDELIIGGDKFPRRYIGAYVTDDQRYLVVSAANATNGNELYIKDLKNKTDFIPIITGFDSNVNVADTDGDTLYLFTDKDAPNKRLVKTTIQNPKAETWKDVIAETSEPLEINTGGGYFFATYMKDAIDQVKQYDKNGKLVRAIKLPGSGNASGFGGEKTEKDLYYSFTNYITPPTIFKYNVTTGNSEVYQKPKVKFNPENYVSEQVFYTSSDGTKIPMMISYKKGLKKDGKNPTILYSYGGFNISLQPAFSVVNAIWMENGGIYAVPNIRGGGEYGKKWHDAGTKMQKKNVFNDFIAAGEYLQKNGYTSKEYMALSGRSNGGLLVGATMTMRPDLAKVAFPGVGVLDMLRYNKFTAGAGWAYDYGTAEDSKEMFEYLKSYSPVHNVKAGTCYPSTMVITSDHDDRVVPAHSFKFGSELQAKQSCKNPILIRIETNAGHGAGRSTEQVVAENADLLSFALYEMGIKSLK
T1 sequence (A0A5F9CCV6 1-707): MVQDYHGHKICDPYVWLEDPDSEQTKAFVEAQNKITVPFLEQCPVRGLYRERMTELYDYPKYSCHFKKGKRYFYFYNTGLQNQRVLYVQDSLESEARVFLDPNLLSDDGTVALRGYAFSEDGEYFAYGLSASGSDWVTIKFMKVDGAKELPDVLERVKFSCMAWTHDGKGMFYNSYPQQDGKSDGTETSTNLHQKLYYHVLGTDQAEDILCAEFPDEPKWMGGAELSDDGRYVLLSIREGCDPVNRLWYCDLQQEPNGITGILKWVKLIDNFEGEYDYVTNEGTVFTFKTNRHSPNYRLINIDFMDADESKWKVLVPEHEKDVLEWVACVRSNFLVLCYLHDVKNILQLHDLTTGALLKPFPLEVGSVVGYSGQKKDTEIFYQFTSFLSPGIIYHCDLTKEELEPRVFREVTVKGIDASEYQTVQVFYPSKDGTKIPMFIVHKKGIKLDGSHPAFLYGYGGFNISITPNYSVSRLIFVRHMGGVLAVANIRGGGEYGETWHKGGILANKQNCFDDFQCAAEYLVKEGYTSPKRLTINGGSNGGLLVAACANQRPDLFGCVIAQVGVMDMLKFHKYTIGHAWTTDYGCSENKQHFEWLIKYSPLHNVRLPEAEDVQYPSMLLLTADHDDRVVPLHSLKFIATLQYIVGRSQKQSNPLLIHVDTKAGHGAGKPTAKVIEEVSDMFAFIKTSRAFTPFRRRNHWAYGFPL

Row | Compound | PED inhibitory activity IC50, Rabbit brain [1] [µg/mL] | PED inhibitory activity IC50, Flavobacterium [2] [ng/mL] | Solubility [3] | Solubility in dimethyl sulfoxide [3] | Solubility in other organic solvents and water [3]
1 | CC(C)CC/C=C/C(=O)NC1CCCNC(=O)C(CC(C)C)NC(=O)C(=O)C(C)NC1=O (stereo not drawn) [BU-4164E A] | 0.085 | 3.7 | Soluble in DMSO | soluble | practically insoluble
2 | CCC(C)CC/C=C/C(=O)NC1CCCNC(=O)C(CC(C)C)NC(=O)C(=O)C(C)NC1=O (stereo not drawn) [BU-4164E B] | 0.031 | 2.1 | Soluble in DMSO | soluble | practically insoluble
3 | CC(C)[C@H](NC(=O)OCc1ccccc1)C(=O)N1CCCC1C=O (stereo partly drawn) [Z-Val-prolinal, reference compound] (Cbz-Val-[ξP]-aldehyde) | 0.016 | 3.6 |  |  | 
